Reference: doi:10.1101/2025.04.14.25325787v4 (medrxiv, 2025)

Target: EGFR kinase domain (Homo sapiens, UniProt P00533)
Assay: SPR
Format: binding

Chain of EGFR kinase domain (P00533 704-1016): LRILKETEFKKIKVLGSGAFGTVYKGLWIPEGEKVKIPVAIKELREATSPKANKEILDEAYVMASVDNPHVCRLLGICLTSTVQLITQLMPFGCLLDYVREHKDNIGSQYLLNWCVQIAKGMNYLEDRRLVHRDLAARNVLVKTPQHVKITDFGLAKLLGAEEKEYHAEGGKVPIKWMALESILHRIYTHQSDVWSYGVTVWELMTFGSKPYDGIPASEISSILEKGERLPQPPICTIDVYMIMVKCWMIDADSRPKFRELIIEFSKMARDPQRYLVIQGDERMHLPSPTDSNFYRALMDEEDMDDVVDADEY

Kd: 19.6 µM
SMILES: COc1ccc(CCn2c(=O)c3cc4c(cc3c3ccccc32)OCO4)cc1 [Z5, ZYH005]
